Source: ChEMBL document CHEMBL3991601, “The target landscape of clinical kinase drugs” (Science, 2017)
Calls of active or inactive are those of the source. For most assays here, no stated cut-off is given here; in the data, actives have a measured Kd and inactives only a lower limit.

Experiments:
[1] = target: Mitogen-activated protein kinase kinase kinase 20 (Homo sapiens, UniProt Q9NYL2)
[2] = target: Tyrosine-protein kinase Yes (Homo sapiens, UniProt P07947)
Deoxycytidine kinase = Deoxycytidine kinase (Homo sapiens, UniProt P27707)
[3] = target: T1, AarF domain-containing protein kinase 1 (Homo sapiens, UniProt Q86TW2)
T1 sequence (Q86TW2 whole entry): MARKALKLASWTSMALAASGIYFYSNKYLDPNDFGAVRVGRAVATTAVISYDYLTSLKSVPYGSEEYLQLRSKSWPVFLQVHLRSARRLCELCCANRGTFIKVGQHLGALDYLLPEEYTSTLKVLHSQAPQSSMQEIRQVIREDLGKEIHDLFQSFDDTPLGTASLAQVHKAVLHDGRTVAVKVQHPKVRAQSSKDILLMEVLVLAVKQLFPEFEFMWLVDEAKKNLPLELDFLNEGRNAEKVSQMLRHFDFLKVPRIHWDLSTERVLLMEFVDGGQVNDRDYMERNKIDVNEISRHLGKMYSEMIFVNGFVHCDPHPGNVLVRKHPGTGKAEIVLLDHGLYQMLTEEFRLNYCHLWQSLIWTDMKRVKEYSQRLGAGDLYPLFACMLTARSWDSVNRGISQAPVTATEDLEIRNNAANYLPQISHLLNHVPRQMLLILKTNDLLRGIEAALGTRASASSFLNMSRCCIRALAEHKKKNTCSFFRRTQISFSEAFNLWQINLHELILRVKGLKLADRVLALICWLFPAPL

[4] = target: Glycogen synthase kinase-3 alpha (Homo sapiens, UniProt P49840)
[5] = target: Epithelial discoidin domain-containing receptor 1 (Homo sapiens, UniProt Q08345)
[6] = target: Tyrosine-protein kinase ABL2 (Homo sapiens, UniProt P42684)
TGF-beta receptor type-2 = TGF-beta receptor type-2 (Homo sapiens, UniProt P37173)
[7] = target: T2, Dual specificity mitogen-activated protein kinase kinase 3 (Homo sapiens, UniProt P46734)
T2 sequence (P46734 whole entry): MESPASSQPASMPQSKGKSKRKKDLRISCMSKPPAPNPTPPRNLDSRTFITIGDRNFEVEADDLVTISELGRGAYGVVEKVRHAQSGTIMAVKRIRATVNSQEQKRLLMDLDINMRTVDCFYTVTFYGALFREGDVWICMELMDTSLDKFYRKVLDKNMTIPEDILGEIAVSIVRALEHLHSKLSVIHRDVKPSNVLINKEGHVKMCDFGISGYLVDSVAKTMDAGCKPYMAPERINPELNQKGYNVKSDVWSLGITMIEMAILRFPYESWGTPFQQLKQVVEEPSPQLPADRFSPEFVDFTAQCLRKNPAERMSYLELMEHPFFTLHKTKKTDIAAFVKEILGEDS

[8] = target: Dual specificity mitogen-activated protein kinase kinase 1 (Homo sapiens, UniProt Q02750)
[9] = target: Serine/threonine-protein kinase SIK3 (Homo sapiens, UniProt Q9Y2K2)
[10] = target: Platelet-derived growth factor receptor beta (Homo sapiens, UniProt P09619)
Aurora kinase A = target: T3, Aurora kinase A (Homo sapiens, UniProt O14965)
T3 sequence (O14965 whole entry): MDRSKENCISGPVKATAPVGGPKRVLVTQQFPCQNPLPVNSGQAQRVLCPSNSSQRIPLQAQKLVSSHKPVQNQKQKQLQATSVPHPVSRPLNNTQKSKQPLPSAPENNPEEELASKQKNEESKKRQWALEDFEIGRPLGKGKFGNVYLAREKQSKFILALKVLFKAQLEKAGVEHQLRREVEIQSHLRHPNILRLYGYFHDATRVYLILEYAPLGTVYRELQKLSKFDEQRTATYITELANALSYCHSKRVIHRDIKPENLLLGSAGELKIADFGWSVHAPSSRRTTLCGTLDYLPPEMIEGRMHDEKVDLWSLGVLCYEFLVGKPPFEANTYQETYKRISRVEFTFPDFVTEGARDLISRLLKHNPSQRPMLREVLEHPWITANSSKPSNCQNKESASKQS

[11] = target: T4, General transcription and DNA repair factor IIH helicase subunit XPD (Homo sapiens, UniProt P18074); settings: read-out: Kd apparent; k-562, colo 205, sk-n-be(2) and mv-4-11
T4 sequence (P18074 whole entry): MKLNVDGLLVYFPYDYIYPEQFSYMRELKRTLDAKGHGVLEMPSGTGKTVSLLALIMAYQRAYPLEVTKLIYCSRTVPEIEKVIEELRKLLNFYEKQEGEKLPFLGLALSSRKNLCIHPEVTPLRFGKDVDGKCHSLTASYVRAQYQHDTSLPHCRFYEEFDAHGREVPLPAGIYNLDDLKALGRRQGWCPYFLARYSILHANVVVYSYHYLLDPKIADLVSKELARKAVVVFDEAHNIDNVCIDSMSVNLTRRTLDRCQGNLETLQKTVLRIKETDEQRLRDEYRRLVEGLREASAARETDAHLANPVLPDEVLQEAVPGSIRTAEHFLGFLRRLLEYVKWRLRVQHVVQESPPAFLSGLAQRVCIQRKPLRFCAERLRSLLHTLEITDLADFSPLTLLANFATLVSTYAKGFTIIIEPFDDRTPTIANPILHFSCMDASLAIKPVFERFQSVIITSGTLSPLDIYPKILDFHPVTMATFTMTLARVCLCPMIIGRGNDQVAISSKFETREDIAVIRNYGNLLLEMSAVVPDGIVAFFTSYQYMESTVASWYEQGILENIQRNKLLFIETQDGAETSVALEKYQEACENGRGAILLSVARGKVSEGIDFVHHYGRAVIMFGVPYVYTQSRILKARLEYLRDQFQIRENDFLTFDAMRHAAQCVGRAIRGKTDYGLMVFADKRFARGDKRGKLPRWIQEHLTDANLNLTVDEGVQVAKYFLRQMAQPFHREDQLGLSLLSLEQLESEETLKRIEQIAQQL

Chain of Epithelial discoidin domain-containing receptor 1 (Q08345 whole entry, the tested form may be a part): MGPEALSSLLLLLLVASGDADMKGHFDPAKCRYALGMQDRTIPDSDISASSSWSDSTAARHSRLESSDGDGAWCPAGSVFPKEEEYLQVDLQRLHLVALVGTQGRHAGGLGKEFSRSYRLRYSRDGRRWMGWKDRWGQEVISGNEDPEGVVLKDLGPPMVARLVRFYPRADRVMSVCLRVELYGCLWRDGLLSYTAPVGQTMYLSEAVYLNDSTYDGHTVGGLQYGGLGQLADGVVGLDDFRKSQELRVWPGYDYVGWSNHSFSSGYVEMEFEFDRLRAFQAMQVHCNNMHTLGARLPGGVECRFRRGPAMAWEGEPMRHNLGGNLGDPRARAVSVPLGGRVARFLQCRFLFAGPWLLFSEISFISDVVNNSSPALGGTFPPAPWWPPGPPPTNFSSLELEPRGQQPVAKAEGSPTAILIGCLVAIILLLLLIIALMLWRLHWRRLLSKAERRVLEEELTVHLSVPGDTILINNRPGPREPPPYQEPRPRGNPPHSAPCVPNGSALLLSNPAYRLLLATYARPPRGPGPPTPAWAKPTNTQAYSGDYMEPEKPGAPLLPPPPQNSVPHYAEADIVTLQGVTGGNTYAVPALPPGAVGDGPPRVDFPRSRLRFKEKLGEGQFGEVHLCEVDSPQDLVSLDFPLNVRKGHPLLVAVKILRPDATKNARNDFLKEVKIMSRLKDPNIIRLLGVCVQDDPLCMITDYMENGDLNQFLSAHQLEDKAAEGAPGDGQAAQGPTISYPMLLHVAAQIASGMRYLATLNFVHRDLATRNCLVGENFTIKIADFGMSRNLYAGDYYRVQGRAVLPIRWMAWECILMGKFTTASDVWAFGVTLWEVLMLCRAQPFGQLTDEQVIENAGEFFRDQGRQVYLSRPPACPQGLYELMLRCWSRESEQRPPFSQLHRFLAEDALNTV
Chain of Platelet-derived growth factor receptor beta (P09619 whole entry): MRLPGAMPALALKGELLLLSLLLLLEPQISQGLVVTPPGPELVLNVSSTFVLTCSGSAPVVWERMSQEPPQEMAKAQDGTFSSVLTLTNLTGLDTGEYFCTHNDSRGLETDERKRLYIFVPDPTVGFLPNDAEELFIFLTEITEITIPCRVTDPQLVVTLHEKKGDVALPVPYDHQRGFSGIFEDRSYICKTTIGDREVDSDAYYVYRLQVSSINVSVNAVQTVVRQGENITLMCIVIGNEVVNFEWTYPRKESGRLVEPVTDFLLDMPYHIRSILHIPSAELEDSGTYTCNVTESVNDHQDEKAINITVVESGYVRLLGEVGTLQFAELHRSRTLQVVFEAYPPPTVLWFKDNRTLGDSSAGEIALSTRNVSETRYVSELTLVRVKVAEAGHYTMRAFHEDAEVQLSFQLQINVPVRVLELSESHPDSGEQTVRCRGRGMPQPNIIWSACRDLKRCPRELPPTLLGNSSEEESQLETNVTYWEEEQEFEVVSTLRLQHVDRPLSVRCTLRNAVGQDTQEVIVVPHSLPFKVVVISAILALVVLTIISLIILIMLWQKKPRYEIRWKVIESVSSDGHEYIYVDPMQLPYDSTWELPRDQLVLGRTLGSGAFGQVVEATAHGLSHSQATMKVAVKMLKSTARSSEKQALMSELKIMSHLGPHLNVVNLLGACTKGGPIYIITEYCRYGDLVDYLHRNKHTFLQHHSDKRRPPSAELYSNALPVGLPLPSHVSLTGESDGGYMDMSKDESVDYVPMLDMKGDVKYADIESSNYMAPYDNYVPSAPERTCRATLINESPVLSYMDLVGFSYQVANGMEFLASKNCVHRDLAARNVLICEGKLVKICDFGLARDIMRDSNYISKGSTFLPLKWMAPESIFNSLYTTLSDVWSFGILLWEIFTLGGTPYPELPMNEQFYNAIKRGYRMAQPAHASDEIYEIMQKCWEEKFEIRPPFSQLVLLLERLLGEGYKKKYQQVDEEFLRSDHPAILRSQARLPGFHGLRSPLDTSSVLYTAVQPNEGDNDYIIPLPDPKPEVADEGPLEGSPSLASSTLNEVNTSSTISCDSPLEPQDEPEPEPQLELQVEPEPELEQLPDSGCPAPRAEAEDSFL
Chain of Serine/threonine-protein kinase SIK3 (Q9Y2K2 whole entry): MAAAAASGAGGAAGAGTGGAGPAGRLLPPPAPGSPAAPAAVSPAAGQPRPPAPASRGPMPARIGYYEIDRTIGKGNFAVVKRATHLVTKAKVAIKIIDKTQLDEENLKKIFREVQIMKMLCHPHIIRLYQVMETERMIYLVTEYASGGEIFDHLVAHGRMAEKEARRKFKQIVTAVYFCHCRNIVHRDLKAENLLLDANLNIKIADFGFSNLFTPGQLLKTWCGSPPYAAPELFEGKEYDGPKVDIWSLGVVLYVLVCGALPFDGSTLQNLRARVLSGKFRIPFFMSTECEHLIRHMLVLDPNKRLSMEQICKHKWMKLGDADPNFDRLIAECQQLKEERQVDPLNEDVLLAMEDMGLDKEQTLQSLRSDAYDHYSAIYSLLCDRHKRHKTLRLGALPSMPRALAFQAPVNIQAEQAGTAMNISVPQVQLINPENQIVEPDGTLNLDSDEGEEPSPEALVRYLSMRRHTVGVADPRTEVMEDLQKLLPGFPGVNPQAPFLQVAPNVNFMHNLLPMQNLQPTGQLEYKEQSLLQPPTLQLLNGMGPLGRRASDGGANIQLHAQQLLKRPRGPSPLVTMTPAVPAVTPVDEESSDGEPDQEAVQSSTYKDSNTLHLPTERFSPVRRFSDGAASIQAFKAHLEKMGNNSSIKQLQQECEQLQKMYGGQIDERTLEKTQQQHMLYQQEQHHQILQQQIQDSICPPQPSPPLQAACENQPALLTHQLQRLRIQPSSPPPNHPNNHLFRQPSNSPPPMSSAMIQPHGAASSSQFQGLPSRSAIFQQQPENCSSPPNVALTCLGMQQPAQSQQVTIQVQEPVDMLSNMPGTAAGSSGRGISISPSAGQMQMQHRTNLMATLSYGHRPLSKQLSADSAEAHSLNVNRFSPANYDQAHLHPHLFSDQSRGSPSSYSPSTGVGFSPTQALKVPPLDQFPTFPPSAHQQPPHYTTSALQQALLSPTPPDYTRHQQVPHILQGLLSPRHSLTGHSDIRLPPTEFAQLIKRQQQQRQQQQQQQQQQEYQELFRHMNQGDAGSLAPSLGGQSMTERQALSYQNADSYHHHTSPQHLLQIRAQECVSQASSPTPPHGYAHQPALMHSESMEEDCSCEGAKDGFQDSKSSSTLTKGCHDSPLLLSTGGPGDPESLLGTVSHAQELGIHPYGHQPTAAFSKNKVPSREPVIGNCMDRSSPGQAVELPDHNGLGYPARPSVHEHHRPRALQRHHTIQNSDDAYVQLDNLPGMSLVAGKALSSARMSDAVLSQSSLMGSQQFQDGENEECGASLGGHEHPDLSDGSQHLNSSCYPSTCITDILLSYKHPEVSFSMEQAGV
Chain of Mitogen-activated protein kinase kinase kinase 20 (Q9NYL2 whole entry): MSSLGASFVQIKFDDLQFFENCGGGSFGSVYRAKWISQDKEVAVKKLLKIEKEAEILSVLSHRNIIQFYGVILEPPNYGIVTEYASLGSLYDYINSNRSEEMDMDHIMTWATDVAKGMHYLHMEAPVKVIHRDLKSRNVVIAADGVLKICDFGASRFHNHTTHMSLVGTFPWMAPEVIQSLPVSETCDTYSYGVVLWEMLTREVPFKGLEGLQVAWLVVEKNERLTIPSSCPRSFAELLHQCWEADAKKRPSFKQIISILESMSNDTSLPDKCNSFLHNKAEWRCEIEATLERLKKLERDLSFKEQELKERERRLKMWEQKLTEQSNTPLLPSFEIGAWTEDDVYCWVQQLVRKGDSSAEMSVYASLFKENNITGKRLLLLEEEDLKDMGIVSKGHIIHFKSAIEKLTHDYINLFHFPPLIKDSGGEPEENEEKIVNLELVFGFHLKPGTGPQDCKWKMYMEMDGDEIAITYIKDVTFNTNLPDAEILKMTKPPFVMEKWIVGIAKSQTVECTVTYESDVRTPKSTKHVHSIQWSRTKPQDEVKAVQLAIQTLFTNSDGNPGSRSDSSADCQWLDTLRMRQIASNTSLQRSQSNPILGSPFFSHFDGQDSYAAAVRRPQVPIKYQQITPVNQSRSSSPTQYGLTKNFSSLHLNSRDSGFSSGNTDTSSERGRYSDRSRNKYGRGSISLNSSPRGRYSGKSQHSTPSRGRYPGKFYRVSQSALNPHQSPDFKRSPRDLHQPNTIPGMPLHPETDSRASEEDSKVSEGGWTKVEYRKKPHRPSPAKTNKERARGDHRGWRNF
Chain of Dual specificity mitogen-activated protein kinase kinase 1 (Q02750 whole entry): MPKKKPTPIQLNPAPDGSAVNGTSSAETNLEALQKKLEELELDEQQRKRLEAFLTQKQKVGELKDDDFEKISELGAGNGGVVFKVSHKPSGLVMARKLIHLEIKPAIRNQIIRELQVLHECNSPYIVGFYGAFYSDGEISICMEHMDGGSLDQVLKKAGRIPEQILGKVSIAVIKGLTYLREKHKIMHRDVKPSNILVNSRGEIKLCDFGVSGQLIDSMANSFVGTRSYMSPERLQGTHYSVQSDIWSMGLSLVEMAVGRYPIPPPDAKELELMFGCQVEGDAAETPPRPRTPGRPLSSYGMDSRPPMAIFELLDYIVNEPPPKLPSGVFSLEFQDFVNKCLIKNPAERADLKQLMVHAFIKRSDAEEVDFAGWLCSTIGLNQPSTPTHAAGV
Chain of Deoxycytidine kinase (P27707 whole entry, the tested form may be a part): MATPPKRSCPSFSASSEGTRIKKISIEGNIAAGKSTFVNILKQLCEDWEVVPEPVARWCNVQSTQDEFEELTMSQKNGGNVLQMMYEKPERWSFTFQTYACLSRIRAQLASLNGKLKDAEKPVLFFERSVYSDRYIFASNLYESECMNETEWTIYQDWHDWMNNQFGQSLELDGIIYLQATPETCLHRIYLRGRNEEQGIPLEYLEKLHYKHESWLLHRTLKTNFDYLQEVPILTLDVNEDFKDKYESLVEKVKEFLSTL

Row | Kd [1] | Kd [2] | Kd (Deoxycytidine kinase) | Kd [3] | Kd [4] | Kd [5] | Kd [6] | Kd (TGF-beta receptor type-2) | Kd [7] | Kd [8] | Kd [9] | Kd [10] | Kd (Aurora kinase A) | Kd [11] | Compound
1 | > 30 µM (inactive) | 5.56 µM (active) | > 30 µM (inactive) | > 30 µM (inactive) | 2.09 µM (active) | > 30 µM (inactive) | 0.939 µM (active) | > 30 µM (inactive) | > 30 µM (inactive) | > 30 µM (inactive) | > 30 µM (inactive) | 29.7 µM | 0.981 µM (active) | 0.002 µM (active) | Cc1nc(Nc2n[nH]c3c2CN(C(=O)N[C@H](CN(C)C)c2ccccc2)C3(C)C)c2sccc2n1 [PF-03758309]
2 | > 30 µM (inactive) | > 30 µM (inactive) | > 30 µM (inactive) | > 30 µM (inactive) | > 30 µM (inactive) | > 30 µM (inactive) | > 30 µM (inactive) | > 30 µM (inactive) | > 30 µM (inactive) | > 30 µM (inactive) | > 30 µM (inactive) | > 30 µM (inactive) | > 30 µM (inactive) | > 30 µM (inactive) | Cc1cnc(NC(=O)Nc2cc(Br)c(C)cc2OC[C@@H]2CNCCO2)cn1 [RABUSERTIB]
3 | > 30 µM (inactive) | > 30 µM (inactive) | > 30 µM (inactive) | > 30 µM (inactive) | > 30 µM (inactive) | > 30 µM (inactive) | > 30 µM (inactive) | > 30 µM (inactive) | > 30 µM (inactive) | > 30 µM (inactive) | > 30 µM (inactive) | > 30 µM (inactive) | > 30 µM (inactive) | > 30 µM (inactive) | CO[C@H]1C[C@@H]2CC[C@@H](C)[C@@](O)(O2)C(=O)C(=O)N2CCCC[C@H]2C(=O)O[C@H]([C@H](C)C[C@@H]2CC[C@@H](OP(C)(C)=O)[C@H](OC)C2)CC(=O)[C@H](C)/C=C(\C)[C@@H](O)[C@@H](OC)C(=O)[C@H](C)C[C@H](C)/C=C/C=C/C=C/1C [RIDAFOROLIMUS]
4 | 4.76 µM (active) | > 30 µM (inactive) | > 30 µM (inactive) | > 30 µM (inactive) | > 30 µM (inactive) | > 30 µM (inactive) | > 30 µM (inactive) | > 30 µM (inactive) | > 30 µM (inactive) | > 30 µM (inactive) | > 30 µM (inactive) | > 30 µM (inactive) | > 30 µM (inactive) | > 30 µM (inactive) | N#CC1(c2ccc(NC(=O)c3cccnc3NCc3ccncc3)cc2)CCCC1 [RIVOCERANIB]
5 | > 30 µM (inactive) | > 30 µM (inactive) | > 30 µM (inactive) | > 30 µM (inactive) | > 30 µM (inactive) | > 30 µM (inactive) | > 30 µM (inactive) | > 30 µM (inactive) | > 30 µM (inactive) | > 30 µM (inactive) | > 30 µM (inactive) | > 30 µM (inactive) | > 30 µM (inactive) | > 30 µM (inactive) | O=c1[nH]ccc2cc(OC3CCNCC3)ccc12 [SAR-407899 FREE BASE]
6 | > 30 µM (inactive) | > 30 µM (inactive) | > 30 µM (inactive) | > 30 µM (inactive) | > 30 µM (inactive) | > 30 µM (inactive) | > 30 µM (inactive) | 4.72 µM (active) | > 30 µM (inactive) | > 30 µM (inactive) | > 30 µM (inactive) | > 30 µM (inactive) | > 30 µM (inactive) | > 30 µM (inactive) | Cn1cc(-c2cnn3c(N)c(Br)c([C@@H]4CCCNC4)nc23)cn1 [SCH-900776]

Further lines, the compound ahead of its results:

Row | Compound | Kd [1] | Kd [2] | Kd (Deoxycytidine kinase) | Kd [3] | Kd [4] | Kd [5] | Kd [6] | Kd (TGF-beta receptor type-2) | Kd [7] | Kd [8] | Kd [9] | Kd [10] | Kd (Aurora kinase A) | Kd [11]
7 | NC1(c2ccc(-c3nc4ccn5c(=O)[nH]nc5c4cc3-c3ccccc3)cc2)CCC1 [MK-2206] | > 30 µM (inactive) | > 30 µM (inactive) | > 30 µM (inactive) | > 30 µM (inactive) | > 30 µM (inactive) | > 30 µM (inactive) | > 30 µM (inactive) | > 30 µM (inactive) | > 30 µM (inactive) | > 30 µM (inactive) | > 30 µM (inactive) | > 30 µM (inactive) | > 30 µM (inactive) | > 30 µM (inactive)
8 | CN(C[C@@H]1COCCO1)S(=O)(=O)Nc1ccc2ccc3ncc(-c4cnn(C)c4)cc3c(=O)c2c1 [MK-2461] | > 30 µM (inactive) | > 30 µM (inactive) | > 30 µM (inactive) | > 30 µM (inactive) | > 30 µM (inactive) | > 30 µM (inactive) | > 30 µM (inactive) | > 30 µM (inactive) | > 30 µM (inactive) | > 30 µM (inactive) | > 30 µM (inactive) | 0.543 µM | > 30 µM (inactive) | > 30 µM (inactive)
9 | Cn1cc(-c2cnc3ccc4ccc(CS(=O)(=O)NCc5ccccn5)cc4c(=O)c3c2)cn1 [MK-8033] | > 30 µM (inactive) | > 30 µM (inactive) | > 30 µM (inactive) | > 30 µM (inactive) | > 30 µM (inactive) | > 30 µM (inactive) | > 30 µM (inactive) | > 30 µM (inactive) | > 30 µM (inactive) | > 30 µM (inactive) | > 30 µM (inactive) | > 30 µM (inactive) | > 30 µM (inactive) | > 30 µM (inactive)
10 | FC(F)(F)c1ccc(/C=C/c2nc(COc3ccc(CCCCn4ccnn4)cc3)co2)cc1 [MUBRITINIB] | > 30 µM (inactive) | > 30 µM (inactive) | > 30 µM (inactive) | > 30 µM (inactive) | > 30 µM (inactive) | > 30 µM (inactive) | > 30 µM (inactive) | > 30 µM (inactive) | > 30 µM (inactive) | > 30 µM (inactive) | > 30 µM (inactive) | > 30 µM (inactive) | > 30 µM (inactive) | > 30 µM (inactive)
11 | COc1ncc(-c2ccc3nccc(-c4ccnnc4)c3c2)cc1NS(=O)(=O)c1ccc(F)cc1F [OMIPALISIB] | > 30 µM (inactive) | > 30 µM (inactive) | > 30 µM (inactive) | > 30 µM (inactive) | > 30 µM (inactive) | > 30 µM (inactive) | > 30 µM (inactive) | > 30 µM (inactive) | > 30 µM (inactive) | > 30 µM (inactive) | > 30 µM (inactive) | > 30 µM (inactive) | > 30 µM (inactive) | > 30 µM (inactive)
